Data reported in patent US12606544B2, “JAK1 selective kinase inhibitor” (DIZAL (JIANGSU) PHARMACEUTICAL CO., LTD., priority 2019, dated 2026).

Experiments:
JAK3 = biological target: T1, JAK3 (Homo sapiens, UniProt P52333); experiment: Lance Ultra Kinase Assay, recombinant JAK3; type: biochemical; details: 5 mM ATP
T1 construct: purchased Carna Biosciences
T1 sequence (P52333 1-1124): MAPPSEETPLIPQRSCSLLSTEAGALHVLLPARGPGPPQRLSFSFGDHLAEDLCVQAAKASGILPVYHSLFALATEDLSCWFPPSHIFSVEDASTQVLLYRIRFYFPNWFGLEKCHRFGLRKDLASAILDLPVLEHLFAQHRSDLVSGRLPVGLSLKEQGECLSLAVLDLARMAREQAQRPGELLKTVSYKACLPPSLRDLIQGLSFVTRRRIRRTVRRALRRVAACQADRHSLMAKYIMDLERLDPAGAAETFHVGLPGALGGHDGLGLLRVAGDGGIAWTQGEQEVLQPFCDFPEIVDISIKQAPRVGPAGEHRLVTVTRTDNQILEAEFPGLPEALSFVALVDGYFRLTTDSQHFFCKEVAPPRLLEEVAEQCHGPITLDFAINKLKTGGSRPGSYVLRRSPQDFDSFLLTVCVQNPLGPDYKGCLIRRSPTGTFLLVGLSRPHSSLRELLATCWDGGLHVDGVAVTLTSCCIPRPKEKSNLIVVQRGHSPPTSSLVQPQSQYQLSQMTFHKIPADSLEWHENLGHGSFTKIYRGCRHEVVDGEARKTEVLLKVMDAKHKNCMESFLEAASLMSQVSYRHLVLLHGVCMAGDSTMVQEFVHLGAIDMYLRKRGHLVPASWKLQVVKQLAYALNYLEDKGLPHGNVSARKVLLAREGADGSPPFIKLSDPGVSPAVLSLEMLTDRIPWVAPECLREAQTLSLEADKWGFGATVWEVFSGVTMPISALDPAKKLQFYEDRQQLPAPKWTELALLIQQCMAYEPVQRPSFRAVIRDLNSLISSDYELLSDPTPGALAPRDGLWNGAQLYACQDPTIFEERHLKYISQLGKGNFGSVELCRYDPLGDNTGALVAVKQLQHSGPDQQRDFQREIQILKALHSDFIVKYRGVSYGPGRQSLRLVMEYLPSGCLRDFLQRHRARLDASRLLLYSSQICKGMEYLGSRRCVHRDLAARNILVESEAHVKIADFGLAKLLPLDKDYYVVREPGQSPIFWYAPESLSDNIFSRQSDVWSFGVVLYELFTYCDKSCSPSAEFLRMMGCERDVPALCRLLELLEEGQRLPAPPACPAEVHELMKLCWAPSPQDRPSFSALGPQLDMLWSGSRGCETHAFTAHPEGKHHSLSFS
Procedure: (§1) Recombinant JAK1, JAK2, JAK3 and TYK2 purchased from Carna Biosciences. The inhibition potency of compounds against JAK1, JAK2, JAK3 and TYK2 was assessed using Lance Ultra Kinase Assay.
(§2) In brief, recombinant kinases were pre-incubated in the presence or absence of compound at room temperature for 15 minutes. The reaction was initiated by the addition of 5 mM ATP and substrate peptide which could be phosphorylated by kinases in the reaction. After 60 minutes incubation, the reaction was stopped by the addition of the detection reagent mix containing EDTA. The fluorescence was measured at 615 nm and 665 nm, respectively with excitation wavelength at 320 nm. The calculated signal ratio of 665 nm/615 nm is proportional to the kinase activity.

phosphorylation of STAT6 = experiment: Cellular p-STAT6 assay, IL-13 stimulated THP-1 cells, flow cytometry; type: cell-based; details: Homo sapiens, THP-1, THP-1 cells, IL-13 10 ng/ml; read-out: pSTAT6 IC50
Procedure: To detect phosphorylated STAT6 (pSTAT6), THP-1 cells were harvested by centrifugation at 250 g for 5 min and resuspended in assay medium (RPMI1640+10% FBS) to 2×10^5 cells/well. Test compounds were applied to assay plates in serial dilution from 1 μM to 0.3 nM in DMSO. THP-1 cells were incubated with serial diluted compounds for 60 min at room temperature, followed by stimulation of interleukin (IL-13, 10 ng/ml) for 30 min, fixed in Cytofix buffer (BD Biosciences), and permeabilized in 90% methanol on ice. PE anti-pSTAT6 (BD Biosciences) antibodies were stained for 60 min at room temperature before being analyzed by flow cytometry. In the assay the compounds were thus diluted and dose-response curves for inhibition of the signal determine the IC50 for the compounds.

JAK1 = biological target: T2, JAK1 (Homo sapiens, UniProt P23458); experiment: Lance Ultra Kinase Assay, recombinant JAK1; type: biochemical; details: 5 mM ATP
T2 construct: purchased Carna Biosciences
T2 sequence (P23458 whole entry): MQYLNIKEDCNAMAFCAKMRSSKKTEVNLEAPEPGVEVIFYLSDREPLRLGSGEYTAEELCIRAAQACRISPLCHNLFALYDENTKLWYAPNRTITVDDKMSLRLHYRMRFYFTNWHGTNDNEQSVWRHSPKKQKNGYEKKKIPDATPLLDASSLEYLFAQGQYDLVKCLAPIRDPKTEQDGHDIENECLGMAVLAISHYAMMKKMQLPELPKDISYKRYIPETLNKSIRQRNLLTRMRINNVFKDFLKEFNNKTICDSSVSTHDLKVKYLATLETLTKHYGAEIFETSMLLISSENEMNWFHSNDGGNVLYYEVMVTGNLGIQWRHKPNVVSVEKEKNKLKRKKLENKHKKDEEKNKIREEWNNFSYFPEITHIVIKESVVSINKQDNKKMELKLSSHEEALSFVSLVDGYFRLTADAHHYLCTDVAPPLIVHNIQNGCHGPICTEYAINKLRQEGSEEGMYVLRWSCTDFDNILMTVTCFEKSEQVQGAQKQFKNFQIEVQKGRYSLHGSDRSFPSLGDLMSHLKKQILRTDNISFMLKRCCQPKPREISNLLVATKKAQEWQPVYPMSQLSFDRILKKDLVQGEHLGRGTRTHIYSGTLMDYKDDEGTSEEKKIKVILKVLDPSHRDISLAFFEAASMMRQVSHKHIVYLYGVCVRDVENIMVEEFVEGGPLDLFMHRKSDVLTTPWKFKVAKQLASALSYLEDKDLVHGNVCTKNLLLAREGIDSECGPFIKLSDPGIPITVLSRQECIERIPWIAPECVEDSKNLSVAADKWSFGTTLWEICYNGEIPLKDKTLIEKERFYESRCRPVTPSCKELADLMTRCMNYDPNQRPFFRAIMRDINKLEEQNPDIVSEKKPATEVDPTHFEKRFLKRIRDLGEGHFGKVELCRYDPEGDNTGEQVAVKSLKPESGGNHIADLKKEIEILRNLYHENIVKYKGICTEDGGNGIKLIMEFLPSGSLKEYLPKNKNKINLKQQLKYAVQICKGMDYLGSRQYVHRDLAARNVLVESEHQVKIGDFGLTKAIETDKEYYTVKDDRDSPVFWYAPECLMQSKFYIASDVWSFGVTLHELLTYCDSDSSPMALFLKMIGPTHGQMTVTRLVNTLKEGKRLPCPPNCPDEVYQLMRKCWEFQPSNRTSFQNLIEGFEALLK
Procedure: as §1, §2

JAK2 = biological target: T3, JAK2 (Homo sapiens, UniProt O60674); experiment: Lance Ultra Kinase Assay, recombinant JAK2; type: biochemical; details: 5 mM ATP
T3 construct: purchased Carna Biosciences
T3 sequence (O60674 whole entry): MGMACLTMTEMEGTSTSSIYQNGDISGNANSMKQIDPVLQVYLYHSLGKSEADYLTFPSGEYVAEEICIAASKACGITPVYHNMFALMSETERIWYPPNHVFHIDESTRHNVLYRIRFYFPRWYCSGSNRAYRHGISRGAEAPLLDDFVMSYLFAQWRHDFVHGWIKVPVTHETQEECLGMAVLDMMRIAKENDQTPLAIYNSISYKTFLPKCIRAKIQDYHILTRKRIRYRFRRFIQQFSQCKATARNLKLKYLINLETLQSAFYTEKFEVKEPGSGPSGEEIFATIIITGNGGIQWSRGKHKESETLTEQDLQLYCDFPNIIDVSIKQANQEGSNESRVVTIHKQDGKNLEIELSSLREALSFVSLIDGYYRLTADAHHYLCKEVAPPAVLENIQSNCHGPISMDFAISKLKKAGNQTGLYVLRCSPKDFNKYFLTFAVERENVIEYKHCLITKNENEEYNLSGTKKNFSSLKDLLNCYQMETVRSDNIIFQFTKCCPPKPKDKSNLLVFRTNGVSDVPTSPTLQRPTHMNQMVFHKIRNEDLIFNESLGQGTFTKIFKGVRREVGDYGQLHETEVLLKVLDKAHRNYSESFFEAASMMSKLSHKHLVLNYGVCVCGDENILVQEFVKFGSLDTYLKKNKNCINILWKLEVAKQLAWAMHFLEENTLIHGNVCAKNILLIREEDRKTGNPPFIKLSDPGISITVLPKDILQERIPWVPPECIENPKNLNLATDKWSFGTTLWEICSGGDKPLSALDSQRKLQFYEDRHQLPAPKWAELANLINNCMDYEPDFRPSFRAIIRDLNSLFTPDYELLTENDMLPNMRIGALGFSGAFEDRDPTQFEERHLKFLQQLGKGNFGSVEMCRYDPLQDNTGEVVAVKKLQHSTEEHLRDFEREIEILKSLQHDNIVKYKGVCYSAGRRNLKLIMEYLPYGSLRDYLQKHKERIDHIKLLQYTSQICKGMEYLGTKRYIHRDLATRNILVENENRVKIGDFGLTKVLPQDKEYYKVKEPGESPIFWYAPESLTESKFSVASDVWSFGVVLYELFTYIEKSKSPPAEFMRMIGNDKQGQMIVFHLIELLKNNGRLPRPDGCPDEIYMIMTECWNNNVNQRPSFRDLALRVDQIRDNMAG
Procedure: as §1, §2

TYK2 = biological target: T4, TYK2 (Homo sapiens, UniProt P29597); experiment: Lance Ultra Kinase Assay, recombinant TYK2; type: biochemical; details: 5 mM ATP
T4 construct: purchased Carna Biosciences
T4 sequence (P29597 whole entry): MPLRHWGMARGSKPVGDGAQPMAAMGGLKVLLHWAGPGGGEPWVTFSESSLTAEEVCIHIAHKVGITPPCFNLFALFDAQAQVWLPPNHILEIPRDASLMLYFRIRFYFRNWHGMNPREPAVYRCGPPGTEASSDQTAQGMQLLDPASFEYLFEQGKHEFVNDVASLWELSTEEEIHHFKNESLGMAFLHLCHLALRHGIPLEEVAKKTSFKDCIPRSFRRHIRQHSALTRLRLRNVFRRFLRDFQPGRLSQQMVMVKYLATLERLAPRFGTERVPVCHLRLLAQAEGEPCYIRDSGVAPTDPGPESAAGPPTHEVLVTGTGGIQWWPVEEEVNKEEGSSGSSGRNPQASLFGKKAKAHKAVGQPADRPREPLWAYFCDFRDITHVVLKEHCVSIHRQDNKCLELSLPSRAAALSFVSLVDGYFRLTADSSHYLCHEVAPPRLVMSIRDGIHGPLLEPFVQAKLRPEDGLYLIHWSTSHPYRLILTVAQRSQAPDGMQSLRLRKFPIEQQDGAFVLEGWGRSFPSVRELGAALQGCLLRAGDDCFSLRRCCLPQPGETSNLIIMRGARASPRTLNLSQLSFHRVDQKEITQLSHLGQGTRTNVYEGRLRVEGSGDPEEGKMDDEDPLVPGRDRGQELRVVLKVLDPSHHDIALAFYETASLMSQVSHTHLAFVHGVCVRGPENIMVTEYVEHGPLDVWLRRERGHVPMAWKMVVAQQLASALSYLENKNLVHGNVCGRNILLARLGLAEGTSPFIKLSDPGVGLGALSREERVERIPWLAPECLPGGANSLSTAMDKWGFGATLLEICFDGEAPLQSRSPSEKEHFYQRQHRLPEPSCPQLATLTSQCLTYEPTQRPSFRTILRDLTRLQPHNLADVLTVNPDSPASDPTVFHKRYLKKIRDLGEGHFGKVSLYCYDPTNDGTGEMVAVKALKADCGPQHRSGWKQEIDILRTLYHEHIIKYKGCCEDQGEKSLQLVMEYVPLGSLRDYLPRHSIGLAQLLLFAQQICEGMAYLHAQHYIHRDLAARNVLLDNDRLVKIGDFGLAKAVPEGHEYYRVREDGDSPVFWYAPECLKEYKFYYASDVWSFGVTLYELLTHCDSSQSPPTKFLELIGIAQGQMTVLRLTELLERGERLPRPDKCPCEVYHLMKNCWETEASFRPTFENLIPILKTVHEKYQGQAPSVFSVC
Procedure: as §1, §2

Row | SMILES | IC50 (JAK3) [nM] | IC50 (phosphorylation of STAT6) [nM] | IC50 (JAK1) [nM] | IC50 (JAK2) [nM] | IC50 (TYK2) [nM]
1 | CCOC(=O)Cc1ccc(Nc2ncc(F)c(-c3c[nH]c4c(NC(=O)[C@@H](COC)N5CCN(C)CC5)cccc34)n2)cn1 [Example 31, ethyl (R)-2-(5-((5-fluoro-4-(7-(3-methoxy-2-(4-methylpiperazin-1-yl)propanamido)-1H-indol-3-yl)pyrimidin-2-yl)amino)pyridin-2-yl)acetate] | > 10000 | 10.4 | 0.15 | 218 | 1310
2 | COC[C@H](C(=O)Nc1cccc2c(-c3nc(Nc4ccc5ncoc5c4)ncc3F)c[nH]c12)N1CCN(C)CC1 [Example 50, (R)-N-(3-(2-(benzo[d]oxazol-6-ylamino)-5-fluoropyrimidin-4-yl)-1H-indol-7-yl)-3-methoxy-2-(4-methylpiperazin-1-yl)propanamide] | > 10000 | 14.4 | 0.11 | 119 | 772
3 | COC[C@H](C(=O)Nc1cccc2c(-c3nc(Nc4ccc(OCC(=O)OC)nc4)ncc3F)c[nH]c12)N1CCN(C)CC1 [Example 14, methyl (R)-2-((5-((5-fluoro-4-(7-(3-methoxy-2-(4-methylpiperazin-1-yl)propanamido)-1H-indol-3-yl)pyrimidin-2-yl)amino)pyridin-2-yl)oxy)acetate] | > 10000 | 7.3 | 0.2 | 336 | 4200
4 | COC[C@H](C(=O)Nc1cccc2c(-c3nc(Nc4ccc(-c5ncco5)nc4)ncc3F)c[nH]c12)N1CCN(C)CC1 [Example 22, (R)-N-(3-(5-fluoro-2-((6-(oxazol-2-yl)pyridin-3-yl)amino)pyrimidin-4-yl)-1H-indol-7-yl)-3-methoxy-2-(4-methylpiperazin-1-yl)propanamide] | > 10000 | 8.5 | 0.24 | 467 | 5250
5 | COC[C@H](C(=O)Nc1cccc2c(-c3nc(Nc4ccc(NC(=O)OC)nc4)ncc3F)c[nH]c12)N1CCN(C)CC1 [Example 52, methyl (R)-(5-((5-fluoro-4-(7-(3-methoxy-2-(4-methylpiperazin-1-yl)propanamido)-1H-indol-3-yl)pyrimidin-2-yl)amino)pyridin-2-yl)carbamate] | > 10000 | 15 | 0.43 | 363 | 2170
6 | COC[C@H](C(=O)Nc1cccc2c(-c3nc(Nc4ccc(-n5ccnc5)nc4)ncc3F)c[nH]c12)N1CCN(C)CC1 [Example 24, (R)-N-(3-(2-((6-(1H-imidazol-1-yl)pyridin-3-yl)amino)-5-fluoropyrimidin-4-yl)-1H-indol-7-yl)-3-methoxy-2-(4-methylpiperazin-1-yl)propanamide] | > 10000 | 8.9 | 0.82 | 403 | 2570
7 | CNCCOc1ccc(Nc2ncc(F)c(-c3c[nH]c4c(NC(=O)[C@@H](COC)N5CCN(C)CC5)cccc34)n2)cn1 [Example 20, (R)-N-(3-(5-fluoro-2-((6-(2-(methylamino)ethoxy)pyridin-3-yl)amino)pyrimidin-4-yl)-1H-indol-7-yl)-3-methoxy-2-(4-methylpiperazin-1-yl)propanamide] | > 10000 | 7.9 | 0.65 | 135 | 2400
8 | COC[C@H](C(=O)Nc1cccc2c(-c3nc(Nc4cccc(CCC(=O)OC)n4)ncc3F)c[nH]c12)N1CCN(C)CC1 [Example 55, methyl (R)-3-(6-((5-fluoro-4-(7-(3-methoxy-2-(4-methylpiperazin-1-yl)propanamido)-1H-indol-3-yl)pyrimidin-2-yl)amino)pyridin-2-yl)propanoate] | > 10000 | 15.3 | 12.8 | 2710 | > 10000
9 | COC[C@H](C(=O)Nc1cccc2c(-c3nc(Nc4ccc5scnc5c4)ncc3F)c[nH]c12)N1CCN(C)CC1 [Example 26, (R)-N-(3-(2-(benzo[d]thiazol-5-ylamino)-5-fluoropyrimidin-4-yl)-1H-indol-7-yl)-3-methoxy-2-(4-methylpiperazin-1-yl)propanamide] | > 10000 | 9.1 | 0.07 | 100 | 1260
10 | COC[C@H](C(=O)Nc1cccc2c(-c3nc(Nc4ccc5c(c4)CCOC5=O)ncc3F)c[nH]c12)N1CCN(C)CC1 [Example 42, (R)-N-(3-(5-fluoro-2-((1-oxoisochroman-6-yl)amino)pyrimidin-4-yl)-1H-indol-7-yl)-3-methoxy-2-(4-methylpiperazin-1-yl)propanamide] | 5260 | 12.8 | 0.07 | 16 | 560
11 | COC[C@H](C(=O)Nc1cccc2c(-c3nc(Nc4cc(CO)c5cn[nH]c5c4)ncc3F)c[nH]c12)N1CCN(C)CC1 [Example 61, (R)-N-(3-(5-fluoro-2-((4-(hydroxymethyl)-1H-indazol-6-yl)amino)pyrimidin-4-yl)-1H-indol-7-yl)-3-methoxy-2-(4-methylpiperazin-1-yl)propanamide] | 3590 | 17.7 | 0.11 | 8 | 194
12 | COC[C@H](C(=O)Nc1cccc2c(-c3nc(Nc4ccc5ncsc5c4)ncc3F)c[nH]c12)N1CCN(C)CC1 [Example 47, (R)-N-(3-(2-(benzo[d]thiazol-6-ylamino)-5-fluoropyrimidin-4-yl)-1H-indol-7-yl)-3-methoxy-2-(4-methylpiperazin-1-yl)propanamide] | > 10000 | 14 | 0.13 | 81 | 556
13 | COC[C@H](C(=O)Nc1cccc2c(-c3nc(Nc4cnc5cn[nH]c5c4)ncc3F)c[nH]c12)N1CCN(C)CC1 [Example 19, (R)-N-(3-(2-((1H-pyrazolo[4,3-b]pyridin-6-yl)amino)-5-fluoropyrimidin-4-yl)-1H-indol-7-yl)-3-methoxy-2-(4-methylpiperazin-1-yl)propanamide] | > 10000 | 7.7 | 0.27 | 215 | 
14 | COC[C@H](C(=O)Nc1cccc2c(-c3nc(Nc4ccc5[nH]ncc5c4)ncc3F)c[nH]c12)N1CCN(C)CC1 [Example 32, (R)-N-(3-(2-((1H-indazol-5-yl)amino)-5-fluoropyrimidin-4-yl)-1H-indol-7-yl)-3-methoxy-2-(4-methylpiperazin-1-yl)propanamide] | 9280 | 10.6 | 0.16 | 87 | 1490
15 | COC[C@H](C(=O)Nc1cccc2c(-c3nc(Nc4cnn(C5CCOCC5)c4)ncc3F)c[nH]c12)N1CCN(C)CC1 [Example 18, (R)-N-(3-(5-fluoro-2-((1-(tetrahydro-2H-pyran-4-yl)-1H-pyrazol-4-yl)amino)pyrimidin-4-yl)-1H-indol-7-yl)-3-methoxy-2-(4-methylpiperazin-1-yl)propanamide] | 7730 | 7.6 | 0.14 | 22 | 1090
